Legend:
Format in all cases: biochemical
human Src enzyme = target: T1, human Src enzyme (Homo sapiens, UniProt P12931); experiment: Src enzyme inhibitory activity (time-resolved fluorometry, biotinylated peptide phosphorylation); settings: biotinylated peptide phosphorylation, read-out: SRC_IC50
T1 construct: purchased Carna Biosciences, Inc. 08-173
Summary of the method: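 Compounds were tested for blocking tyrosine phosphorylation of a biotinylated peptide substrate by recombinant human Src. Phosphorylated product was quantified by time-resolved fluorometry using europium cryptate and XL665 conjugates, and IC50 was calculated against the compound-free control.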

human Lck enzyme = target: T2, human Lck enzyme (Homo sapiens, UniProt P06239); experiment: Lck enzyme inhibitory activity (time-resolved fluorometry, biotinylated peptide phosphorylation); settings: biotinylated peptide phosphorylation, read-out: LCK_IC50
T2 construct: purchased Carna Biosciences, Inc. 08-170
T2 sequence (P06239 whole entry): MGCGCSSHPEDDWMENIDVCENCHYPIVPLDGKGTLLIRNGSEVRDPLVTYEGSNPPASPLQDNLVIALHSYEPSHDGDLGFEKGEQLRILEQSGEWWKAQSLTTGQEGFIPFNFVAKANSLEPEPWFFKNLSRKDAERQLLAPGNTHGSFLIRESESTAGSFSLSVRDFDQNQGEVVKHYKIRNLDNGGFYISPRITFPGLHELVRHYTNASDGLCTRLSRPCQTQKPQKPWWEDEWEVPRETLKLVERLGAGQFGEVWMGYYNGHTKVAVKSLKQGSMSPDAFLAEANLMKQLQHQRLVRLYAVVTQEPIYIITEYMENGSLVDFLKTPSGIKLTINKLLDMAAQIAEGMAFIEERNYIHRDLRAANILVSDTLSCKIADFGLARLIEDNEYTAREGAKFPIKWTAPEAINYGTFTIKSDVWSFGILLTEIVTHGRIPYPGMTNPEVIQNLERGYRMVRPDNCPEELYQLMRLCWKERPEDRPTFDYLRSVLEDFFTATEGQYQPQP
Summary of the method: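 Readout pairs a europium cryptate-labelled anti-phosphotyrosine antibody with XL665-streptavidin, measured by time-resolved fluorescence. IC50 derived from percent inhibition against untreated controls.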

human Yes1 enzyme = target: T3, human Yes1 enzyme (Homo sapiens, UniProt P07947); experiment: Yes1 enzyme inhibitory activity (time-resolved fluorometry, biotinylated peptide phosphorylation); settings: biotinylated peptide phosphorylation, read-out: YES_IC50
T3 construct: made in house
T3 sequence (P07947 whole entry): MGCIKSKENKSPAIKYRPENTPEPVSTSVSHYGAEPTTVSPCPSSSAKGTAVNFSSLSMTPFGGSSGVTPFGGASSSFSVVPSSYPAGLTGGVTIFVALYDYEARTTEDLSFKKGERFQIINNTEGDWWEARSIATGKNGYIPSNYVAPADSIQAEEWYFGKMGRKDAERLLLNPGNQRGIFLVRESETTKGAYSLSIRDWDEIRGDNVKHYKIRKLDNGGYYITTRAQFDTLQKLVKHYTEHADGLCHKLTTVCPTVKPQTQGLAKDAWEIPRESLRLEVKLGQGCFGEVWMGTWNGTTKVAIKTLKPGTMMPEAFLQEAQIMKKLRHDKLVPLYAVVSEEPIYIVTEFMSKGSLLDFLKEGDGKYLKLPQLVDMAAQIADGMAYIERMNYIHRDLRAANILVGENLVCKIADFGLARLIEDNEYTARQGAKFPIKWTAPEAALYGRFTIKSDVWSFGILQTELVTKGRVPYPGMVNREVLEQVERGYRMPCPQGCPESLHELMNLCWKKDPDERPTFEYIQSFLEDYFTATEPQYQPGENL
Summary of the method: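 Inhibition was expressed against a compound-free control to give IC50, using TR-FRET read-out (Eu-cryptate anti-pTyr antibody, streptavidin-XL665).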

T1 sequence (P12931 whole entry): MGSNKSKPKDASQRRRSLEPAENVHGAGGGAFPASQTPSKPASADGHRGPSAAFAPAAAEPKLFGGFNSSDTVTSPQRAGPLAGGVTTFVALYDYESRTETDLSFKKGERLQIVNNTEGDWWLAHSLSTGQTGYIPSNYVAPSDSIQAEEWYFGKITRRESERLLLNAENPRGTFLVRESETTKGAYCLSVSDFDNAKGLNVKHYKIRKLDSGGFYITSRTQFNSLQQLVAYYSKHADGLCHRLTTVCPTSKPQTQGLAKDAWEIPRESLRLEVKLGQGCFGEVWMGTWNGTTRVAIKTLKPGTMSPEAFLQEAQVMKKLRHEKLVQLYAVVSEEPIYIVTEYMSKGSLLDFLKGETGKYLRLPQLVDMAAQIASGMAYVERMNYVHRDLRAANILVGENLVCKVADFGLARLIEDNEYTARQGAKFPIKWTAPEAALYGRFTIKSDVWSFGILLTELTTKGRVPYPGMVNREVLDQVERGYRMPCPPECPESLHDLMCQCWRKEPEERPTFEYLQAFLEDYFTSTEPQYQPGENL

Compound	IC50 (human Src enzyme)	IC50 (human Lck enzyme)	IC50 (human Yes1 enzyme)
Cc1cc(Oc2ccccc2F)ncc1-n1ncc(C(=O)c2cc3cc(OCC(F)F)c(NS(=O)(=O)N4CCOCC4)cc3[nH]2)c1N [Example 4-22-006, N-[2-[5-amino-1-[6-(2-fluorophenoxy)-4-methylpyridin-3-yl]pyrazole-4-carbonyl]-5-(2,2-difluoroethoxy)-1H-indol-6-yl]morpholine-4-sulfonamide]	130 nM	51 nM	1.9 nM
Cc1cc(Oc2ccccc2F)ccc1-n1ncc(C(=O)c2cc3cc(OC(F)F)c(N4CCN(S(C)(=O)=O)CC4)cc3[nH]2)c1N [Example 4-23-002, [5-amino-1-[4-(2-fluorophenoxy)-2-methylphenyl]pyrazol-4-yl]-[5-(difluoromethoxy)-6-(4-methylsulfonylpiperazin-1-yl)-1H-indol-2-yl]methanone]	44 nM	20 nM	1.6 nM
Cc1cc(Oc2ccccc2F)cc(F)c1-n1ncc(C(=O)c2cc3cc(OC(F)F)c(N4CCN(S(C)(=O)=O)CC4)cc3[nH]2)c1N [Example 4-23-003, [5-amino-1-[2-fluoro-4-(2-fluorophenoxy)-6-methylphenyl]pyrazol-4-yl]-[5-(difluoromethoxy)-6-(4-methylsulfonylpiperazin-1-yl)-1H-indol-2-yl]methanone]	62 nM	21 nM	10 nM
Cc1cc(Oc2ccccc2F)ncc1-n1ncc(C(=O)c2cc3cc(OC(F)F)c(N4CCN(S(C)(=O)=O)CC4)cc3[nH]2)c1N [Example 4-23-004, [5-amino-1-[6-(2-fluorophenoxy)-4-methylpyridin-3-yl]pyrazol-4-yl]-[5-(difluoromethoxy)-6-(4-methylsulfonylpiperazin-1-yl)-1H-indol-2-yl]methanone]	48 nM	18 nM	5.5 nM

Further compounds by falling IC50 (human Src enzyme), results first:

IC50 (human Src enzyme)	IC50 (human Lck enzyme)	IC50 (human Yes1 enzyme)	Compound
44 nM	20 nM	1.8 nM	Cc1cc(Oc2ccccc2F)ccc1-n1ncc(C(=O)c2cc3cc(OCC(F)F)c(NS(=O)(=O)N4CCOCC4)cc3[nH]2)c1N [Example 4-22-005, N-[2-[5-amino-1-[4-(2-fluorophenoxy)-2-methylphenyl]pyrazole-4-carbonyl]-5-(2,2-difluoroethoxy)-1H-indol-6-yl]morpholine-4-sulfonamide]
22 nM	13 nM	2.7 nM	Cc1cc(Oc2ccccc2F)cc(F)c1-n1ncc(C(=O)c2cc3cc(OCC(F)F)c(N4CCN(S(C)(=O)=O)CC4)cc3[nH]2)c1N [Example 4-23-006, [5-amino-1-[2-fluoro-4-(2-fluorophenoxy)-6-methylphenyl]pyrazol-4-yl]-[5-(2,2-difluoroethoxy)-6-(4-methylsulfonylpiperazin-1-yl)-1H-indol-2-yl]methanone]
16 nM	8.2 nM	1.3 nM	Cc1cc(Oc2c(F)cccc2F)ncc1-n1ncc(C(=O)c2cc3cc(OCC(F)F)c(N4CCN(S(C)(=O)=O)CC4)cc3[nH]2)c1N [Example 4-23-001, {5-amino-1-[6-(2,6-difluorophenoxy)-4-methylpyridin-3-yl]pyrazol-4-yl}-[5-(2,2-difluoroethoxy)-6-(4-methylsulfonylpiperazin-1-yl)-1H-indol-2-yl]methanone]
16 nM	8.2 nM	1.7 nM	Cc1cc(Oc2ccccc2F)ccc1-n1ncc(C(=O)c2cc3cc(OCC(F)F)c(N4CCN(S(C)(=O)=O)CC4)cc3[nH]2)c1N [Example 4-23-005, [5-amino-1-[4-(2-fluorophenoxy)-2-methylphenyl]pyrazol-4-yl]-[5-(2,2-difluoroethoxy)-6-(4-methylsulfonylpiperazin-1-yl)-1H-indol-2-yl]methanone]
16 nM	5.5 nM	1.3 nM	Cc1cc(Oc2ccccc2F)ncc1-n1ncc(C(=O)c2cc3cc(OCC(F)F)c(N4CCN(S(C)(=O)=O)CC4)cc3[nH]2)c1N [Example 4-23-007, [5-amino-1-[6-(2-fluorophenoxy)-4-methylpyridin-3-yl]pyrazol-4-yl]-[5-(2,2-difluoroethoxy)-6-(4-methylsulfonylpiperazin-1-yl)-1H-indol-2-yl]methanone]
